How the values were obtained:
Assay in all cases: relative viability (nuclei count vs DMSO), 5 days (fraction); higher = more cells survive
[1] = test system: NCI-H727
Procedure, shortened: (§1)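 Cells from lung cancer lines were seeded into 1536-well plates and, one day later, dosed by pin tool. Treatments were either a single drug or a fixed dose of an anchor drug with five library-drug doses (not always all listed) in √10 steps. After 5 days, nuclei were stained in a one-step fixation (final 0.05% Triton X-100, 1% formaldehyde, 1 ug/ml Hoechst) and counted on 4× images, and relative viability is the treated-to-vehicle nuclei ratio, as the median of duplicate plates.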

[2] = test system: SK-LU-1
Procedure, shortened: as §1

[3] = test system: NCI-H1975
Procedure, shortened: as §1

[4] = test system: NCI-H596
Procedure, shortened: as §1

[5] = test system: EKVX
Procedure, shortened: as §1

[6] = test system: NCI-H460
Procedure, shortened: as §1

[7] = test system: NCI-H522
Procedure, shortened: as §1

[8] = test system: NCI-H1666
Procedure, shortened: as §1

[9] = test system: LCLC-97TM1
Procedure, shortened: as §1

[10] = test system: NCI-H1437
Procedure, shortened: as §1

[11] = test system: PC-3 [JPC-3]
Procedure, shortened: as §1

[12] = test system: NCI-H838
Procedure, shortened: as §1

[13] = test system: NCI-H1915
Procedure, shortened: as §1

[14] = test system: NCI-H441
Procedure, shortened: as §1

[15] = test system: NCI-H661
Procedure, shortened: as §1

[16] = test system: NCI-H322M
Procedure, shortened: as §1

[17] = test system: NCI-H2342
Procedure, shortened: as §1

[18] = test system: NCI-H647
Procedure, shortened: as §1

[19] = test system: NCI-H520
Procedure, shortened: as §1

[20] = test system: NCI-H1650
Procedure, shortened: as §1

[21] = test system: NCI-H358
Procedure, shortened: as §1

[22] = test system: NCI-H23
Procedure, shortened: as §1

Cc1csc(=NC2CCCCC2)n1/N=C/c1ccc(O)c(O)c1O [MIM1] + O=C(CCCCCCC(=O)Nc1ccccc1)NO [Vorinostat] (partner 1 µM)
relative viability ([1]; first compound 0.2 µM): 1.29
relative viability ([1]; first compound 0.6325 µM): 1.16
relative viability ([1]; first compound 2 µM): 1.15
relative viability ([1]; first compound 6.325 µM): 1.06
relative viability ([1]; first compound 20 µM): 0.607
relative viability ([2]; first compound 0.2 µM): 0.764
relative viability ([2]; first compound 0.6325 µM): 0.837
relative viability ([2]; first compound 2 µM): 0.957
relative viability ([2]; first compound 6.325 µM): 0.623
relative viability ([2]; first compound 20 µM): 0.393
relative viability ([3]; first compound 0.2 µM): 0.682
relative viability ([3]; first compound 0.6325 µM): 0.708
relative viability ([3]; first compound 2 µM): 0.644
relative viability ([3]; first compound 6.325 µM): 0.239
relative viability ([3]; first compound 20 µM): 0.204
relative viability ([4]; first compound 0.2 µM): 0.719
relative viability ([4]; first compound 0.6325 µM): 0.722
relative viability ([4]; first compound 2 µM): 0.561
relative viability ([4]; first compound 6.325 µM): 0.559
relative viability ([4]; first compound 20 µM): 0.337
relative viability ([5]; first compound 0.2 µM): 0.609
relative viability ([5]; first compound 2 µM): 0.707
relative viability ([5]; first compound 6.325 µM): 0.473
relative viability ([5]; first compound 20 µM): 0.265
relative viability ([6]; first compound 0.2 µM): 0.703
relative viability ([6]; first compound 0.6325 µM): 0.746
relative viability ([6]; first compound 2 µM): 0.411
relative viability ([6]; first compound 6.325 µM): 0.117
relative viability ([6]; first compound 20 µM): 0.0234
relative viability ([7]; first compound 0.2 µM): 0.858
relative viability ([7]; first compound 0.6325 µM): 0.916
relative viability ([7]; first compound 2 µM): 0.91
relative viability ([7]; first compound 6.325 µM): 0.891
relative viability ([7]; first compound 20 µM): 0.345
relative viability ([8]; first compound 0.2 µM): 1.01
relative viability ([8]; first compound 0.6325 µM): 0.922
relative viability ([8]; first compound 2 µM): 1.08
relative viability ([8]; first compound 6.325 µM): 0.769
relative viability ([8]; first compound 20 µM): 0.477
relative viability ([9]; first compound 0.2 µM): 0.594
relative viability ([9]; first compound 0.6325 µM): 0.23
relative viability ([9]; first compound 2 µM): 0.719
relative viability ([9]; first compound 6.325 µM): 0.236
relative viability ([9]; first compound 20 µM): 0.0643
relative viability ([10]; first compound 0.2 µM): 0.712
relative viability ([10]; first compound 0.6325 µM): 0.843
relative viability ([10]; first compound 2 µM): 0.833
relative viability ([10]; first compound 6.325 µM): 0.313
relative viability ([10]; first compound 20 µM): 0.197
relative viability ([11]; first compound 0.2 µM): 0.776
relative viability ([11]; first compound 0.6325 µM): 0.714
relative viability ([11]; first compound 2 µM): 0.726
relative viability ([11]; first compound 6.325 µM): 0.657
relative viability ([11]; first compound 20 µM): 0.376
relative viability ([12]; first compound 0.2 µM): 0.717
relative viability ([12]; first compound 0.6325 µM): 0.747
relative viability ([12]; first compound 2 µM): 0.675
relative viability ([12]; first compound 6.325 µM): 0.413
relative viability ([12]; first compound 20 µM): 0.197
relative viability ([13]; first compound 0.2 µM): 0.527
relative viability ([13]; first compound 0.6325 µM): 0.429
relative viability ([13]; first compound 2 µM): 0.442
relative viability ([13]; first compound 6.325 µM): 0.343
relative viability ([13]; first compound 20 µM): 0.17
relative viability ([14]; first compound 0.2 µM): 0.748
relative viability ([14]; first compound 0.6325 µM): 0.798
relative viability ([14]; first compound 2 µM): 0.974
relative viability ([14]; first compound 6.325 µM): 0.212
relative viability ([14]; first compound 20 µM): 0.191
relative viability ([15]; first compound 0.2 µM): 0.764
relative viability ([15]; first compound 0.6325 µM): 0.748
relative viability ([15]; first compound 2 µM): 0.742
relative viability ([15]; first compound 6.325 µM): 0.406
relative viability ([15]; first compound 20 µM): 0.292
relative viability ([16]; first compound 0.2 µM): 0.889
relative viability ([16]; first compound 0.6325 µM): 0.917
relative viability ([16]; first compound 2 µM): 0.789
relative viability ([16]; first compound 6.325 µM): 0.733
relative viability ([16]; first compound 20 µM): 0.418
relative viability ([17]; first compound 0.2 µM): 0.727
relative viability ([17]; first compound 0.6325 µM): 0.719
relative viability ([17]; first compound 2 µM): 0.774
relative viability ([17]; first compound 6.325 µM): 0.589
relative viability ([17]; first compound 20 µM): 0.905
relative viability ([18]; first compound 0.2 µM): 0.655
relative viability ([18]; first compound 0.6325 µM): 0.61
relative viability ([18]; first compound 2 µM): 0.614
relative viability ([18]; first compound 6.325 µM): 0.454
relative viability ([18]; first compound 20 µM): 0.104
relative viability ([19]; first compound 0.2 µM): 0.64
relative viability ([19]; first compound 0.6325 µM): 0.744
relative viability ([19]; first compound 2 µM): 0.833
relative viability ([19]; first compound 6.325 µM): 0.538
relative viability ([19]; first compound 20 µM): 0.308
relative viability ([20]; first compound 0.2 µM): 0.617
relative viability ([20]; first compound 0.6325 µM): 0.562
relative viability ([20]; first compound 2 µM): 0.451
relative viability ([20]; first compound 6.325 µM): 0.119
relative viability ([20]; first compound 20 µM): 0.179
relative viability ([21]; first compound 0.2 µM): 0.741
relative viability ([21]; first compound 0.6325 µM): 0.628
relative viability ([21]; first compound 2 µM): 0.678
relative viability ([21]; first compound 6.325 µM): 0.235
relative viability ([21]; first compound 20 µM): 0.169
relative viability ([22]; first compound 0.2 µM): 0.55
relative viability ([22]; first compound 0.6325 µM): 0.277
relative viability ([22]; first compound 2 µM): 0.478
relative viability ([22]; first compound 6.325 µM): 0.19
relative viability ([22]; first compound 20 µM): 0.123

Source: the supplement of paper PMC10307832
